From patent US5886165A, “Mixed backbone antisense oligonucleotides containing 2'-5'-ribonucleotide- and 3'-5'-deoxyribonucleotides segments” (Hybridon, Inc., priority 1996, dated 1999)
[25] = 2'-5' internucleotide linkage (phosphodiester)

Columns and labels:
[1] = tested on: snake venom phosphodiesterase; assay: Snake venom phosphodiesterase assay; format: in vitro ADME; conditions: 0.01 U, 21° C.; compared with SEQ ID NO 7
Method: (§1) For snake venom phosphodiesterase assay, labeled oligonucleotide with cold oligonucleotide in a buffer (10 mM Tris, pH 8.0, 100 mM sodium chloride, and 10 mM magnesium chloride) was incubated with 0.01 U of snake venom phosphodiesterase (Boehringer-Mannheim, Indianapolis, Ind.) at 21° C. (final volume 40 μl). Aliquots were removed at different time intervals for electrophoretic gel analysis. For S1 nuclease assay, reactions were carried out as above but in […] sodium acetate, pH 5.0, 10 mM zinc acetate buffer and with 1.4 U of S1 nuclease (Gibco/BRL) incubated at 37° C. in a final volume of 50 μl. Aliquots were removed at different time intervals for electrophoretic gel analysis. Nuclease reactions were stopped by adding 5 μl of formamide gel loading buffer to each sample and heating at 90° C. for 5 min. All the samples were then run by 20% PAGE (7M urea) and visualized by autoradiography.

S1 nuclease = target: T1, S1 nuclease (Aspergillus oryzae, UniProt P24021); assay: S1 nuclease assay; format: in vitro ADME; conditions: 1.4 U, 37° C., pH 5.0
T1 construct: purchased Gibco/BRL
T1 sequence (P24021 21-287): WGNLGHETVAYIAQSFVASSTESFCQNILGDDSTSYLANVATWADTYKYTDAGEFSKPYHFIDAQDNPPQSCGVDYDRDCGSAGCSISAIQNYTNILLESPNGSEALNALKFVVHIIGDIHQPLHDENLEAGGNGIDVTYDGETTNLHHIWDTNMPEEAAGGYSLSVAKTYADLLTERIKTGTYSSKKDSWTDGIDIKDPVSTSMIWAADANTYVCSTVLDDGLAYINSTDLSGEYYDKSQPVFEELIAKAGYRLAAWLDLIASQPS
Method: as §1

[2] = tested on: DNA target strand SEQ ID NO 10 (25 base sequence from the initiation codon region of the HIV-1 gag mRNA); assay: Thermal melting study, duplex with DNA target strand; format: binding
Method: (§2) Thermal denaturation studies were carried out by mixing MBOs with the DNA or RNA target strands in equimolar ratios in 10 mM disodium hydrogen phosphate, pH 7.5±0.1, 100 mM sodium chloride buffer, heated to 95° C. for 10 min, and allowed to come to room temperature slowly before being stored at 4° C. overnight. The final total concentration of the oligonucleotide strands was 2.0 μM. Spectrophotometric measurements were performed at 260 nm using 1 cm path length quartz cuvettes at a heating rate of 0.5° C./min on a Perkin-Elmer (Norwalk, Conn.) Lambda 2 Specotrometer attached to a thermal controller and a personal computer. Melting temperatures (Tm) taken as the temperature of half-dissociation and were obtained from first derivative plots. Precision in Tm values estimated from variance in two or three repeated experiments was ±0.5° C.

[3] = tested on: RNA target strand SEQ ID NO 9 (25 base sequence from the initiation codon region of the HIV-1 gag mRNA); assay: Thermal melting study, duplex with RNA target strand; format: binding
Method: as §2

[4] = tested on: citrated normal human donor plasma; assay: Clotting assay, activated partial thromboplastin time (aPTT); conditions: compared to saline control
Method: The activated partial thromboplastin time (aPTT) was performed with citrated normal human donor plasma in duplicate on an Electra 1000C (Medical Laboratory Automation, Mount Vernon, N.Y.) according to recommended procedures using Actin FSL (Baxter Dade, Miami, Fla.) and 2.5 mM calcium to initiate clot formation, which was measured photometrically. Normal plasma aPTT values ranged from 27 to 39 sec. Data were calculated as 50% of prolongation as compared to the saline control.

[5] = Stability in DMEM cell culture medium containing 10% fetal calf serum; format: in vitro ADME; conditions: DMEM with 10% non-heat-inactivated fetal calf serum, 37° C.
Method: Oligonucleotides were labeled at the 5'-end with ^32 P using γ-^32 P-ATP (Amersham) and T4 polynucleotide kinase (Promega). Sambrook et al, Molecular Cloning, supra. Stability of the oligonucleotides in cell culture medium containing 10% fetal calf serum was tested by incubating a small amount of labeled oligonucleotide together with 100 ng of cold oligonucleotide in DMEM cell culture medium (Gibco/BRL, Grand Island, N.Y.) containing 10% non-heat-inactivated fetal calf serum (Gibco/BRL) at 37° C. in a final volume of 40 μl, and aliquots were removed at different times.

Spleen cells (CD1 mouse) = assay: In vitro cell proliferation assay ([3H]thymidine); format: cell-based; conditions: at 10 μg/ml, 48 hrs
Method: Cell proliferation assays were carried out as described earlier (Zhao et al., Biochem. Pharmacol 51, 173-182 (1996)). Spleen cells (4-5 week old male CD1 mouse, 20-22 gm, Charles River, Wilmington, Mass.) suspensions were prepared and plated in 96-well dishes at a density of 10^6 cells/ml in a final volume of 100 μl. The cells were incubated at 37° C. after adding 10 μl of oligonucleotides. After 44 hrs incubation, 1 μCi [3H]thymidine (Amersham, Arlington Heights, Ill.) was added and the cells were pulse-labeled for another 4 hrs. The cells were harvested by an automatic cell harvester and the filters were counted by a scintillation counter. All experiments were carried out in triplicate.

Which results are given for “SEQ ID NO 1: Phosphodiester MBO with three 2'-5'-linkages at each of the 5'- and 3'-ends, complementary to HIV-1 gag mRNA (antisense CUCTCGCACCCATCTCTCTCCUUCT; linkages [25]3 o18 [25]3 (s phosphorothioate, o phosphodiester), sugars by position and methylation of C not given here)”?
stability against snake venom phosphodiesterase (in words) [1]: slightly higher stability; digestion by S1 nuclease (in words) (S1 nuclease): quickly digested; Tm DNA ([2]; duplex with DNA SEQ ID NO 10, 10 mM disodium hydrogen phosphate pH 7.5, 100 mM NaCl, 2.0 μM total strands): 60.6 °C; Tm lower than duplex of control oligonucleotide SEQ ID NO 7, DNA target ([2]; vs SEQ ID NO 7, DNA SEQ ID NO 10): about 2.9 °C; Tm RNA ([3]; duplex with RNA SEQ ID NO 9, 10 mM disodium hydrogen phosphate pH 7.5, 100 mM NaCl, 2.0 μM total strands): 67.8 °C; Tm lower than duplex of control oligonucleotide SEQ ID NO 7, RNA target ([3]; vs SEQ ID NO 7, RNA SEQ ID NO 9): ~2.7 °C; 50% Prolongation of Clotting (aPTT) ([4]; human plasma): > 100.0 µg/mL; effect in coagulation assay (in words) ([4]; up to 100 μg/ml dose): negligible effect; stability in serum (in words) [5]: intact up to four hours; Stimulation Index (Lymphocyte Proliferation) (Spleen cells (CD1 mouse)): 0.67 ± 0.11
